Source: PubChem BioAssay (NCI)
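Assay format: 96-well plates, 48-hour exposure. Abbreviation: GI50, concentration required for 50% inhibition of growth. TGI is the concentration that stops growth completely.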

Assays:
Assay in all cases: NCI-60 cell line screen, 48 h
NCI-H23 lung = system: NCI-H23 lung
OVCAR-5 ovarian = system: OVCAR-5 ovarian
UO-31 renal = system: UO-31 renal
COLO 205 colon = system: COLO 205 colon
SR leukemia = system: SR leukemia
UACC-257 melanoma = system: UACC-257 melanoma
SK-MEL-5 melanoma = system: SK-MEL-5 melanoma
PC-3 prostate = system: PC-3 prostate
RPMI-8226 leukemia = system: RPMI-8226 leukemia
LOX IMVI melanoma = system: LOX IMVI melanoma
HCC-2998 colon = system: HCC-2998 colon
CCRF-CEM leukemia = system: CCRF-CEM leukemia
SK-MEL-28 melanoma = system: SK-MEL-28 melanoma
TK-10 renal = system: TK-10 renal
BT-549 breast = system: BT-549 breast
ACHN renal = system: ACHN renal
U251 CNS = system: U251 CNS
HOP-62 NSCLC = system: HOP-62 NSCLC
A549 NSCLC = system: A549 NSCLC
SN12C renal = system: SN12C renal
SK-OV-3 ovarian = system: SK-OV-3 ovarian
HT29 colon = system: HT29 colon
SF-295 CNS = system: SF-295 CNS
SW-620 colon = system: SW-620 colon
UACC-62 melanoma = system: UACC-62 melanoma
K-562 leukemia = system: K-562 leukemia
OVCAR-3 ovarian = system: OVCAR-3 ovarian
HCT-15 colon = system: HCT-15 colon
IGROV1 ovarian = system: IGROV1 ovarian
HCT-116 colon = system: HCT-116 colon
SF-539 CNS = system: SF-539 CNS
NCI-H226 lung = system: NCI-H226 lung
NCI-H522 lung = system: NCI-H522 lung
MALME-3M melanoma = system: MALME-3M melanoma
M14 melanoma = system: M14 melanoma
EKVX NSCLC = system: EKVX NSCLC
SNB-75 CNS = system: SNB-75 CNS
NCI/ADR-RES ovarian = system: NCI/ADR-RES ovarian
OVCAR-8 ovarian = system: OVCAR-8 ovarian
SF-268 CNS = system: SF-268 CNS
SK-MEL-2 melanoma = system: SK-MEL-2 melanoma
MDA-MB-435 = system: MDA-MB-435
MOLT-4 leukemia = system: MOLT-4 leukemia
MDA-MB-231 breast = system: MDA-MB-231 breast
T-47D breast = system: T-47D breast
A498 renal = system: A498 renal
DU-145 prostate = system: DU-145 prostate
HS 578T breast = system: HS 578T breast
HOP-92 NSCLC = system: HOP-92 NSCLC
RXF 393 renal = system: RXF 393 renal
KM12 colon = system: KM12 colon
MCF7 breast = system: MCF7 breast
NCI-H460 lung = system: NCI-H460 lung
OVCAR-4 ovarian = system: OVCAR-4 ovarian
HL-60(TB) leukemia = system: HL-60(TB) leukemia
CAKI-1 renal = system: CAKI-1 renal
SNB-19 CNS = system: SNB-19 CNS
786-0 renal = system: 786-0 renal

## CN(c1cc2ncc(=O)[nH]c2cc1NC(N)=NCc1ccc(Cl)cc1)C1CCCCC1
NCI-H23 lung
  GI50: 8.25 µM
  TGI: 15.9 µM
OVCAR-5 ovarian
  GI50: 6.58 µM
  TGI: 14.1 µM
UO-31 renal
  GI50: 8.21 µM
  TGI: 15.8 µM
COLO 205 colon
  GI50: 1.11 µM
  TGI: 2.55 µM
SR leukemia
  GI50: 1.49 µM
  TGI: 5.23 µM
UACC-257 melanoma
  GI50: 9.77 µM
  TGI: 19.2 µM
SK-MEL-5 melanoma
  GI50: 8.18 µM
  TGI: 15.3 µM
PC-3 prostate
  GI50: 5.94 µM
  TGI: 12.5 µM
RPMI-8226 leukemia
  GI50: 3.54 µM
  TGI: 13.4 µM
LOX IMVI melanoma
  GI50: 1.75 µM
  TGI: 5.88 µM
HCC-2998 colon
  GI50: 1.73 µM
  TGI: 5.29 µM
CCRF-CEM leukemia
  GI50: 6.33 µM
  TGI: 15.6 µM
SK-MEL-28 melanoma
  GI50: 6.71 µM
  TGI: 13.7 µM
TK-10 renal
  GI50: 7.44 µM
  TGI: 15.2 µM
BT-549 breast
  GI50: 7.4 µM
  TGI: 14.6 µM
ACHN renal
  GI50: 7.12 µM
  TGI: 14.2 µM
U251 CNS
  GI50: 5.96 µM
  TGI: 13.4 µM
HOP-62 NSCLC
  GI50: 8.84 µM
  TGI: 19.6 µM
A549 NSCLC
  GI50: 9.11 µM
  TGI: 18.8 µM
SN12C renal
  GI50: 7.23 µM
  TGI: 15.5 µM
SK-OV-3 ovarian
  GI50: 7.6 µM
  TGI: 15.8 µM
HT29 colon
  GI50: 5.03 µM
  TGI: 14.1 µM
SF-295 CNS
  GI50: 7.42 µM
  TGI: 14.9 µM
SW-620 colon
  GI50: 4.33 µM
  TGI: 11.2 µM
UACC-62 melanoma
  GI50: 6.8 µM
  TGI: 14 µM
K-562 leukemia
  GI50: 2.38 µM
  TGI: 9.73 µM
OVCAR-3 ovarian
  GI50: 6.78 µM
  TGI: 13.6 µM
HCT-15 colon
  GI50: 8.27 µM
  TGI: 15.4 µM
IGROV1 ovarian
  GI50: 6.93 µM
  TGI: 15 µM
HCT-116 colon
  GI50: 5.44 µM
  TGI: 12.3 µM
SF-539 CNS
  GI50: 7.68 µM
  TGI: 14.6 µM
NCI-H226 lung
  GI50: 8.1 µM
  TGI: 18 µM
NCI-H522 lung
  GI50: 7.39 µM
  TGI: 16.1 µM
MALME-3M melanoma
  GI50: 8.5 µM
  TGI: 17.5 µM
M14 melanoma
  GI50: 7.36 µM
  TGI: 14.9 µM
EKVX NSCLC
  GI50: 6.65 µM
  TGI: 14.5 µM
SNB-75 CNS
  GI50: 2.87 µM
  TGI: 10.1 µM
NCI/ADR-RES ovarian
  GI50: 23.1 µM
  TGI: 50 µM
OVCAR-8 ovarian
  GI50: 10.4 µM
  TGI: 23.3 µM
SF-268 CNS
  GI50: 6.89 µM
  TGI: 14.7 µM
SK-MEL-2 melanoma
  GI50: 8.83 µM
  TGI: 18.3 µM
MDA-MB-435
  GI50: 6.34 µM
  TGI: 12.8 µM
MOLT-4 leukemia
  GI50: 6.59 µM
  TGI: 14.6 µM
MDA-MB-231 breast
  GI50: 2.46 µM
  TGI: 9.04 µM
T-47D breast
  GI50: 5.82 µM
  TGI: 17 µM
A498 renal
  GI50: 8.04 µM
  TGI: 15.4 µM
DU-145 prostate
  GI50: 7.56 µM
  TGI: 14.3 µM
HS 578T breast
  GI50: 6.53 µM
  TGI: 16 µM
HOP-92 NSCLC
  GI50: 0.793 µM
  TGI: 5.95 µM
RXF 393 renal
  GI50: 5.79 µM
  TGI: 13 µM
KM12 colon
  GI50: 4.52 µM
  TGI: 10.9 µM
MCF7 breast
  GI50: 1.75 µM
  TGI: 7.52 µM
NCI-H460 lung
  GI50: 7.14 µM
  TGI: 14.5 µM
OVCAR-4 ovarian
  GI50: 6.21 µM
  TGI: 17.2 µM
HL-60(TB) leukemia
  GI50: 5.36 µM
  TGI: 12.7 µM
CAKI-1 renal
  GI50: 7.47 µM
  TGI: 14.5 µM

## Fc1ccc(-c2nn3c(-c4ccc(F)c(Cl)c4)nnc3s2)cc1
NCI-H23 lung
  GI50: > 50 µM
  TGI: > 50 µM
OVCAR-5 ovarian
  GI50: > 50 µM
  TGI: > 50 µM
UO-31 renal
  GI50: 28.6 µM
  TGI: > 50 µM
COLO 205 colon
  GI50: > 50 µM
  TGI: > 50 µM
SR leukemia
  GI50: 43.8 µM
  TGI: > 50 µM
UACC-257 melanoma
  GI50: 10.6 µM
  TGI: 41.6 µM
SK-MEL-5 melanoma
  GI50: 44.2 µM
  TGI: > 50 µM
PC-3 prostate
  GI50: 29.1 µM
  TGI: > 50 µM
RPMI-8226 leukemia
  GI50: 22.8 µM
  TGI: > 50 µM
LOX IMVI melanoma
  GI50: 32.8 µM
  TGI: > 50 µM
HCC-2998 colon
  GI50: > 50 µM
  TGI: > 50 µM
CCRF-CEM leukemia
  GI50: 5.52 µM
  TGI: 17.8 µM
SK-MEL-28 melanoma
  GI50: > 50 µM
  TGI: > 50 µM
TK-10 renal
  GI50: 14.2 µM
  TGI: > 50 µM
BT-549 breast
  GI50: 33.2 µM
  TGI: > 50 µM
ACHN renal
  GI50: 29.1 µM
  TGI: > 50 µM
U251 CNS
  GI50: 18.5 µM
  TGI: > 50 µM
HOP-62 NSCLC
  GI50: 27.5 µM
  TGI: > 50 µM
A549 NSCLC
  GI50: 21.2 µM
  TGI: > 50 µM
SN12C renal
  GI50: 32.3 µM
  TGI: > 50 µM
SNB-19 CNS
  GI50: 20.1 µM
  TGI: > 50 µM
SK-OV-3 ovarian
  GI50: 19.4 µM
  TGI: > 50 µM
HT29 colon
  GI50: 22.9 µM
  TGI: > 50 µM
SF-295 CNS
  GI50: 18.2 µM
  TGI: > 50 µM
SW-620 colon
  GI50: > 50 µM
  TGI: > 50 µM
UACC-62 melanoma
  GI50: 34.8 µM
  TGI: > 50 µM
K-562 leukemia
  GI50: 34.3 µM
  TGI: > 50 µM
OVCAR-3 ovarian
  GI50: > 50 µM
  TGI: > 50 µM
HCT-15 colon
  GI50: 22.7 µM
  TGI: > 50 µM
IGROV1 ovarian
  GI50: 33.1 µM
  TGI: > 50 µM
HCT-116 colon
  GI50: 21.6 µM
  TGI: > 50 µM
SF-539 CNS
  GI50: > 50 µM
  TGI: > 50 µM
NCI-H226 lung
  GI50: > 50 µM
  TGI: > 50 µM
NCI-H522 lung
  GI50: 20.8 µM
  TGI: > 50 µM
MALME-3M melanoma
  GI50: > 50 µM
  TGI: > 50 µM
M14 melanoma
  GI50: > 50 µM
  TGI: > 50 µM
EKVX NSCLC
  GI50: > 50 µM
  TGI: > 50 µM
SNB-75 CNS
  GI50: 11.3 µM
  TGI: 30.4 µM
NCI/ADR-RES ovarian
  GI50: 23.8 µM
  TGI: > 50 µM
OVCAR-8 ovarian
  GI50: 37.1 µM
  TGI: > 50 µM
SF-268 CNS
  GI50: 38.7 µM
  TGI: > 50 µM
SK-MEL-2 melanoma
  GI50: > 50 µM
  TGI: > 50 µM
MDA-MB-435
  GI50: > 50 µM
  TGI: > 50 µM
786-0 renal
  GI50: 35.3 µM
  TGI: > 50 µM
MOLT-4 leukemia
  GI50: 26.3 µM
  TGI: > 50 µM
MDA-MB-231 breast
  GI50: 30.5 µM
  TGI: > 50 µM
T-47D breast
  GI50: 34.8 µM
  TGI: > 50 µM
A498 renal
  GI50: > 50 µM
  TGI: > 50 µM
DU-145 prostate
  GI50: 36.3 µM
  TGI: > 50 µM
HS 578T breast
  GI50: > 50 µM
  TGI: > 50 µM
HOP-92 NSCLC
  GI50: 15.6 µM
  TGI: > 50 µM
RXF 393 renal
  GI50: 0.688 µM
  TGI: 18.7 µM
KM12 colon
  GI50: > 50 µM
  TGI: > 50 µM
MCF7 breast
  GI50: 30.3 µM
  TGI: > 50 µM
NCI-H460 lung
  GI50: 27.7 µM
  TGI: > 50 µM
OVCAR-4 ovarian
  GI50: 10.1 µM
  TGI: 41 µM
HL-60(TB) leukemia
  GI50: 27.4 µM
  TGI: > 50 µM
CAKI-1 renal
  GI50: 26 µM
  TGI: > 50 µM
